Consider five compounds from patent publication US8802702B2, “Compounds for reducing drug resistance and uses thereof” (The General Hospital Corporation, priority 2009, dated 2014).

Read-outs that look alike come from different tables or passages of the source.

One data set has as its system SKOV-3TR cells. Nature of the data set: Reversal of drug resistance, cytotoxicity (MTT) assay in SKOV-3TR. The data set is classed as cell-based. The settings on record: anti-cancer drug alone, no NSC23925, read-out: SKOV-3TR IC50. Here is the method:
FIGS. 1 (a-b) are graphs that depict the effects of NSC23925 on drug sensitivity in ovarian cancer cells; 1(a) depicts the effects of NSC23925 on sensitive (SKOV-3) and resistant (SKOV-3TR) cells; 1(b) depicts the effects of NSC23925 on sensitive (OVCAR8) and resistant (OVCAR8TR) cells. […] The relative sensitivity of each line to paclitaxel was determined by MTT assay, as described below in the Examples section, 6 days post treatment. […]
Drug cytotoxicity was assessed in vitro using the MTT assay. SKOV-3 and SKOV-3TR cells were used herein. Briefly, 2×10^3 cells per well were plated in 96-well plates in culture medium (RPMI 1640 supplemented with 10% fetal bovine serum and penicillin/streptomycin) containing increasing concentrations of drug. […] The resulting formazan product was dissolved with acid-isopropanol and the absorbance at a wavelength of 490 nm (A490) was read on a SPECTRAmax® Microplate Spectrophotometer (Molecular Devices, Sunnyvale, Calif.). The absorbance values were normalized by assigning the value of the control line in the medium without drug to 1.0 and the value of the no cell control to 0. Experiments were performed in triplicate.

The subject of a further data set is OVCAR8TR cells. The data set can be described thus: Reversal of drug resistance, cytotoxicity (MTT) assay in OVCAR8TR. Type of data set: cell-based, human. The settings on record: anti-cancer drug alone, no NSC23925, read-out: OVCAR8TR IC50. The procedure:
FIGS. 1 (a-b) are graphs that depict the effects of NSC23925 on drug sensitivity in ovarian cancer cells; 1(a) depicts the effects of NSC23925 on sensitive (SKOV-3) and resistant (SKOV-3TR) cells; 1(b) depicts the effects of NSC23925 on sensitive (OVCAR8) and resistant (OVCAR8TR) cells. Cells were treated with the paclitaxel and NSC23925 in RPMI1640 complete media at the indicated concentrations. The relative sensitivity of each line to paclitaxel was determined by MTT assay, as described below in the Examples section, 6 days post treatment. A: Reversal of paclitaxel resistance by NSC23925 in SKOV-3TR cells. B: Reversal of paclitaxel resistance by NSC23925 in OVCAR8TR cells.
Drug cytotoxicity was assessed in vitro using the MTT assay. SKOV-3 and SKOV-3TR cells were used herein. Briefly, 2×10^3 cells per well were plated in 96-well plates in culture medium (RPMI 1640 supplemented with 10% fetal bovine serum and penicillin/streptomycin) containing increasing concentrations of drug. After 7 days of culture, 10 μl MTT (5 mg/ml in PBS, obtained from Sigma) were added to each well and the plates were incubated for 4 h. The resulting formazan product was dissolved with acid-isopropanol and the absorbance at a wavelength of 490 nm (A490) was read on a SPECTRAmax® Microplate Spectrophotometer (Molecular Devices, Sunnyvale, Calif.). The absorbance values were normalized by assigning the value of the control line in the medium without drug to 1.0 and the value of the no cell control to 0. Experiments were performed in triplicate.

Another data set concerns KHOSR2 cells. Nature of the data set: Reversal of drug resistance, cytotoxicity assay in KHOSR2. Type of data set: cell-based, human. Particulars: anti-cancer drug alone, no NSC23925, read-out: KHOSR2 IC50.
The conditions of data set [1]: background statement; cited from earlier work.

As usually defined, the IC50 is the concentration that inhibits the measured activity by half. For the compound `COc1cc2c(cc1O)CCN[C@]21CS[C@@H]2c3c(OC(C)=O)c(C)c4c(c3[C@H](COC1=O)N1[C@@H]2[C@H]2c3c(cc(C)c(OC)c3O)C[C@@H]([C@@H]1O)N2C)OCO4` [ET-743, reference compound], the 50% inhibitory concentration (IC50) in the data set with SKOV-3TR cells (Homo sapiens, SKOV3TR, 144 h) came out at 4 ± 2 nM; in the data set on OVCAR8TR cells (Homo sapiens, 144 h), 6 ± 2 nM; with KHOSR2 cells (Homo sapiens), 175 ± 25 nM.

For the compound `C/C=C/C[C@@H](C)C(=O)[C@H]1C(=O)N[C@@H](C(C)C)C(=O)N(C)CC(=O)N(C)[C@@H](CC(C)C)C(=O)N[C@@H](C(C)C)C(=O)N(C)[C@@H](CC(C)C)C(=O)N[C@@H](C)C(=O)N[C@H](C)C(=O)N(C)[C@@H](CC(C)C)C(=O)N(C)[C@@H](CC(C)C)C(=O)N(C)[C@@H](C(C)C)C(=O)N1C` [PSC 833], the “Reported toxicity / side effects at doses used to modify drug resistance” value in data set [1] is “cerebellar ataxia and hyperbilirubinemia toxicities”.

For the compound `COc1cccc2c1C(=O)c1c(O)c3c(c(O)c1C2=O)C[C@@](O)(C(=O)CO)C[C@@H]3O[C@H]1C[C@H](N)[C@H](O)[C@H](C)O1` [Doxorubicin, reference compound], the half-maximal inhibitory concentration (IC50) with SKOV-3TR cells (Homo sapiens, SKOV3TR, 144 h) turned out to be 22340 ± 200 nM; in the data set with OVCAR8TR cells (Homo sapiens, 144 h), 27620 ± 256 nM; in the data set with KHOSR2 cells (Homo sapiens), 10300 ± 566 nM.

Take `CC(=O)O[C@H]1C(=O)[C@@]2(C)[C@H]([C@H](OC(=O)c3ccccc3)[C@]3(O)C[C@H](OC(=O)[C@H](O)[C@@H](NC(=O)c4ccccc4)c4ccccc4)C(C)=C1C3(C)C)[C@]1(OC(C)=O)CO[C@@H]1C[C@@H]2O` [Paclitaxel, reference compound]: the IC50 is 310 ± 21 nM in the data set with SKOV-3TR cells (Homo sapiens, SKOV3TR, 144 h); 340 ± 32 nM in the data set on OVCAR8TR cells (Homo sapiens, 144 h); 210 ± 23 nM with KHOSR2 cells (Homo sapiens).

For `COc1c(C)cc2c(c1O)[C@@H]1[C@@H]3Cc4c(OC(C)=O)c(C)c5c(c4[C@H](CNC(=O)/C=C/c4cccc(C(F)(F)F)c4)N3[C@@H](O)[C@H](C2)N1C)OCO5` [PM00104, reference compound], the results for the concentration for half-maximal inhibition (IC50) in the data set on SKOV-3TR cells, in the data set on OVCAR8TR cells and in the data set with KHOSR2 cells were 6 ± 1 nM, 8 ± 2 nM and 143 ± 45 nM, respectively.
